According to US20170217982A1, “Compound isolated from Pseudolysimachion rotundum var. subintegrum, the composition comprising the same for treating allergic disease, inflammatory disease, asthma or chronic obstructive pulmonary disease and the use thereof” (YUNGJIN PHARMACEUTICAL CO., LTD, priority 2014, published 2017):
“And” between values parts separate entries of the source, which are not always exact repeats. Identical values can stand only once.

Tests used:
[1] = system: MUC5AC; test: Inhibition of TNF-alpha induced MUC5AC mRNA expression in H292 cells (qRT-PCR); type: cell-based, human; details: TNF-α 20 ng/ml
Protocol: In order to determine the inhibitory effect on the expression of MUC5AC induced by TNF-alpha in H292 cell line, following test was performed:
The isolation of total RNA, cDNA synthesis and quantitative real-time PCR were performed by the method disclosed in the literature (Kim et al., J. Cell. Biochem. 2008, 104, 1906-1917).
In summary, total RNA was isolated using by TRIzol reagent (155596-026, Life Technologies) and the first strand cDNA was synthesized using by enzyme (Omniscript Reverse Transcriptase, 205113, Qiagen, Calif.). The quantitative real-time PCR amplification was performed using by apparatus 1 (S1000 Thermal cycler, Bio-rad, USA) and apparatus 2 (2× Greenstar master mix, Bioneer, Korea) according to the manufacture's manual.
Specifically, the reproduced amount of TNF-alpha induced MUC5AC was determined by Real-time polymerase chain reaction (real-time PCR), quantitative real time polymerase chain reaction (qPCR) and MUC5AC immunoassay. H292 cells were inoculated into 48 well plates in a concentration of 2×10^4 cells/well to adhere for 24 hours and the culture medium was replaced with new 0.1% FBS containing medium to culture for 24 hours. […]
In order to extract total RNA, RNA was extracted using by Trizol B (Invitrogen) and cDNA was synthesized using by Omniscript RT kit (Qiagen, GmbH, Hilden, Germany) after the quantification.

[2] = system: NF-kappa B; test: NF-kappa B luciferase reporter assay in H292 cells; type: cell-based, human; details: 10 μm, TNF-alpha 20 ng/ml
Protocol: NF-kappa B luciferase reporter assay was performed by following procedure disclosed in the literature (Pulin Che et al., Assay Drug Dev. Technol., 2012, 10, 61-68).
In order to establish the stable cells for NF-kappa B luciferase reporter assay, NF-kappa B response element was cloned into vector (pGL4.32 vector, E849A, Promega) according to the manufacture's protocol and infected to the cell (H292 cells, CRL-1848, ATCC) using by Lipofectamine 2000 (11668-019, Invitrogen). The infected cell was selected using by hygromycin (400 μg/ml) for 2 weeks and the colonies were individually cloned and proliferated. […] The test sample was pre-treated in a pre-determined concentration and 20 ng/ml of TNF-alpha was treated therewith for 12 hours. The activity of luciferase enzyme was determined by E6110 kit (OneGlo Luciferase Assay kit, Promega) and DMSO was used as a vehicle control.
The stably expressed H292 cells, a […] human bronchial epithelium cell, with luciferase reporter vector pGL4.32 (luc2P/NF-KB-RE/Hygro, Promega Company) were established prior to following experiment. […] The activation degree of luciferase was determined by One-glow Luciferase Assay system (Promega Company). […] The luminescence was determined by Microplate Luminometer LB 96V (EG&G Berthold company) for 0.5 sec and the result was shown in Table 5 and FIG. 3.

O=C(CO)O[C@@H]1O[C@@H]2C[C@H]3[C@H](OC(=O)c4ccc(O)c(O)c4)[C@@H](Cl)[C@@](O)(CO2)[C@@H]13 [KS-534, (3R,5S,5aS,6R,7S,8R,8aS)-8-chloro-8a-hydroxy-5-(2-hydroxyacetoxy) hexahydro-1H-3,6-methanocyclopenta[e][1,3]dioxepin-7-yl3,4-dihydroxybenzoate]
Expressed level of MUC5AC mRNA (Relative % comparing with that in TNF-alpha treatment group) ([1]; 10 μM): 58.47% and 58.47 ± 18.50% | Inhibitory ratio (%) of MUC5AC mRNA expression ([1]; 10 μm): 41.52% | Inhibitory ratio (%) of NF-kappa B activity [2]: 36.65% | NF-kappa B activity (relative % comparing with TNF-alpha treatment group) [2]: 63.35% and 63.35 ± 6.18%
